Test results from ChEMBL document CHEMBL4483862, “Open-source discovery of chemical leads for next-generation chemoprotective antimalarials” (2018).
pIC50: −log10 of the molar value.

Tested on: Plasmodium berghei
Assay: Luciferase/luciferin-expressing antifolate-resistant parasites were used to infect a culture of HepG2 cells that were pre-incubated with compounds. Infected hepatocytes emit light due to the luciferase reaction. Assay results are presented as the percent inhibition of light emission compared to control. […]
Assay type: functional
Settings: sporozoite; for IC90: read-out: LUCIFERASE INFECTION ASSAY - IC90

| Structure (SMILES) | IC90 | other results |
| --- | --- | --- |
| Cc1ccc(S(=O)(=O)Nc2ccc(Nc3nccn4c(-c5cccc(OC(F)(F)F)c5)cnc34)cc2)cc1 | > 6.12 µM | pIC50 (PBLUC_HILL_SLOPE 2.83, PBLUC_R_SQUARED 0.42, read-out: LUCIFERASE INFECTION ASSAY - IC50): 5.52 |
| OC1CCC(Nc2ccn3nc(-c4cccc(OCc5ccccc5)c4)cc3n2)CC1 (stereo not given) | 7.29 µM | pIC50 (PBLUC_HILL_SLOPE 2.85, PBLUC_R_SQUARED 0.208, read-out: LUCIFERASE INFECTION ASSAY - IC50): 5.47 |
| CN1CCN(C(=O)c2cccc(-c3cnc4cnc(-c5cccc(Cl)c5)cn34)c2)CC1 | > 7.64 µM | pIC50 (PBLUC_HILL_SLOPE 2.84, PBLUC_R_SQUARED 0.435, read-out: LUCIFERASE INFECTION ASSAY - IC50): 5.35 |
| COC(=O)c1sccc1NC(=O)N(C)Cc1ccc(C)cc1C | > 10 µM | pIC50 (PBLUC_HILL_SLOPE 2.81, PBLUC_R_SQUARED 0.305, read-out: LUCIFERASE INFECTION ASSAY - IC50): 5.18 |
| CCCc1c(C)[nH]c2[nH]n(-c3nc(C)cc(C)n3)c(=O)c2c1=O | > 10.5 µM | pIC50 (PBLUC_HILL_SLOPE 2.87, PBLUC_R_SQUARED 0.443, read-out: LUCIFERASE INFECTION ASSAY - IC50): < 4.98 |
| COc1cc(F)c(S(=O)(=O)N2CCCc3cc(F)cc(F)c32)cc1OC | > 10 µM | pIC50 (PBLUC_HILL_SLOPE 2.81, PBLUC_R_SQUARED 0.427, read-out: LUCIFERASE INFECTION ASSAY - IC50): 5.19 |
| O=c1[nH]c2ccccc2c(O)c1F | 2.92 µM | pIC50 (PBLUC_HILL_SLOPE 2.84, PBLUC_R_SQUARED 0.833, read-out: LUCIFERASE INFECTION ASSAY - IC50): 5.87 |
| CC(C)Cc1ccc(C(NC(=O)CCc2ccc(S(N)(=O)=O)cc2)c2cccs2)cc1 (stereo not given) | > 10 µM | pIC50 (PBLUC_HILL_SLOPE 2.82, PBLUC_R_SQUARED 0.609, read-out: LUCIFERASE INFECTION ASSAY - IC50): 5.13 |
| COc1ccc(CN(Cc2n/c(=N\c3ccccc3C)nc(N)[nH]2)Cc2n/c(=N\c3ccccc3C)nc(N)[nH]2)cc1OC | 4.51 µM | pIC50 (PBLUC_HILL_SLOPE 2.79, 12.2, PBLUC_R_SQUARED 0.127, 0.675, read-out: LUCIFERASE INFECTION ASSAY - IC50): 5.56 |
| Cc1nc2nc(C(F)(F)F)nn2c(C)c1CCC(=O)N1CCCC1c1ccc2c(c1)OCCCO2 (stereo not given) | 8.93 µM | pIC50 (PBLUC_HILL_SLOPE 2.87, PBLUC_R_SQUARED 0.605, read-out: LUCIFERASE INFECTION ASSAY - IC50): 5.38 |
| Cc1nn(-c2ccccc2Cl)c2sc(C(=O)NC3CCN(C(C)C)CC3)cc12 | > 10 µM | pIC50 (PBLUC_HILL_SLOPE 2.83, PBLUC_R_SQUARED 0.189, read-out: LUCIFERASE INFECTION ASSAY - IC50): 5.30 |
| C=CC/N=c1\scc(-c2ccc(OC(F)F)cc2)n1/N=C/c1ccc(O)cc1O | > 10 µM | pIC50 (PBLUC_HILL_SLOPE 2.81, PBLUC_R_SQUARED 0.0539, read-out: LUCIFERASE INFECTION ASSAY - IC50): < 5.00 |
| O=S(=O)(/C=C/c1ccccc1)N1CCCC(c2nc3ccccc3s2)C1 (stereo not given) | > 10 µM | pIC50 (PBLUC_HILL_SLOPE 2.87, PBLUC_R_SQUARED 0.652, read-out: LUCIFERASE INFECTION ASSAY - IC50): < 5.00 |
| Cc1cc(Cl)ccc1OCCCc1nc2ccc(Cl)cc2[nH]1 | > 10 µM | pIC50 (PBLUC_HILL_SLOPE 2.8, PBLUC_R_SQUARED 0.541, read-out: LUCIFERASE INFECTION ASSAY - IC50): 5.13 |
| CC(=O)Nc1ccc(Sc2cc(C)nc(C(C)C)n2)cc1 | 9.81 µM | pIC50 (PBLUC_HILL_SLOPE 2.86, PBLUC_R_SQUARED 0.342, read-out: LUCIFERASE INFECTION ASSAY - IC50): 5.34 |
| O=C(NC1CC1)c1ccc(CN(C2CC2)S(=O)(=O)c2ccc3c(c2)OCCCO3)cc1 | 5.38 µM | pIC50 (PBLUC_HILL_SLOPE 2.85, PBLUC_R_SQUARED 0.458, read-out: LUCIFERASE INFECTION ASSAY - IC50): 5.60 |
| COC(=O)CCSc1c2ccc(Cl)cc2nc2ccc(OC)cc12 | 0.454 µM | pIC50 (PBLUC_HILL_SLOPE 2.8, PBLUC_R_SQUARED 0.704, read-out: LUCIFERASE INFECTION ASSAY - IC50): 6.68 |
| CCCCCc1ccc(C(=O)Nc2nc3ccc(C)cn3c2C(=O)NCCCC)cc1 | > 7.85 µM | pIC50 (PBLUC_HILL_SLOPE 2.82, PBLUC_R_SQUARED 0.514, read-out: LUCIFERASE INFECTION ASSAY - IC50): 5.38 |
| CCC(CO)Nc1ccc2ncc(-c3ccc(OC)nc3)n2n1 (stereo not given) | 5.43 µM | pIC50 (PBLUC_HILL_SLOPE 2.84, PBLUC_R_SQUARED 0.538, read-out: LUCIFERASE INFECTION ASSAY - IC50): 5.60 |
| CCc1cc2c(Nc3ccc4c(c3)OCO4)nc(C)nc2s1 | > 10 µM | pIC50 (PBLUC_HILL_SLOPE 2.79, PBLUC_R_SQUARED 0.532, read-out: LUCIFERASE INFECTION ASSAY - IC50): 5.17 |

| Structure (SMILES) | IC90 | other results |
| --- | --- | --- |
| Cc1ccc(C(=O)Nc2nc(CC34CC5CC(CC(C5)C3)C4)cs2)s1 | > 10 µM | pIC50 (PBLUC_HILL_SLOPE 2.85, PBLUC_R_SQUARED 0.204, read-out: LUCIFERASE INFECTION ASSAY - IC50): 5.18 |
| c1ccc(-c2cn3nc(NCc4cccs4)sc3n2)cc1 | > 10 µM | pIC50 (PBLUC_HILL_SLOPE 2.88, PBLUC_R_SQUARED 0.313, read-out: LUCIFERASE INFECTION ASSAY - IC50): 5.31 |
| Cc1cc(C(=O)Cn2c(C(C)O)nc3ccccc32)c(C)n1-c1ccc(F)c(Cl)c1 (stereo not given) | > 10 µM | pIC50 (PBLUC_HILL_SLOPE 2.79, PBLUC_R_SQUARED 0.449, read-out: LUCIFERASE INFECTION ASSAY - IC50): 5.14 |
| COc1ccc(Nc2nccc3c2cc(-c2cccc(OC)c2)n3C)cc1 | 8.15 µM | pIC50 (PBLUC_HILL_SLOPE 2.81, PBLUC_R_SQUARED 0.348, read-out: LUCIFERASE INFECTION ASSAY - IC50): 5.43 |
| COc1cccc(Nc2nccc3nc(-c4cccc(OC(F)(F)F)c4)[nH]c23)c1 | > 10 µM | pIC50 (PBLUC_HILL_SLOPE 2.87, PBLUC_R_SQUARED 0.483, read-out: LUCIFERASE INFECTION ASSAY - IC50): 5.29 |
| CCn1c2ccccc2c2cc(NC(C)C(=O)N3CCNC3=O)ccc21 (stereo not given) | 4.48 µM | pIC50 (PBLUC_HILL_SLOPE 2.83, PBLUC_R_SQUARED 0.574, read-out: LUCIFERASE INFECTION ASSAY - IC50): 5.69 |
| CCCc1cc(NCc2cccnc2)n2ncc(-c3ccccc3)c2n1 | > 9.61 µM | pIC50 (PBLUC_HILL_SLOPE 2.86, PBLUC_R_SQUARED 0.143, read-out: LUCIFERASE INFECTION ASSAY - IC50): 5.16 |
| O=C(NNC(=O)c1cc2c(s1)CCC2)c1csc(COc2ccc(F)cc2)n1 | 8.59 µM | pIC50 (PBLUC_HILL_SLOPE 2.84, PBLUC_R_SQUARED 0.402, read-out: LUCIFERASE INFECTION ASSAY - IC50): 5.40 |
| CC(C)(C)C(=O)/C=c1\[nH]c(=O)/c(=C/c2cc(F)cc3c2OCOC3)s1 | > 10 µM | pIC50 (PBLUC_HILL_SLOPE 2.84, PBLUC_R_SQUARED 0.665, read-out: LUCIFERASE INFECTION ASSAY - IC50): 5.20 |
| CN(C)C(=O)N1CCCC(C(=O)Nc2nc(-c3c(F)cccc3F)cs2)C1 (stereo not given) | > 10 µM | pIC50 (PBLUC_HILL_SLOPE 2.82, PBLUC_R_SQUARED 0.52, read-out: LUCIFERASE INFECTION ASSAY - IC50): 5.25 |
| Cc1cc(C)cc(C(=O)NCC(=O)N(C)Cc2cn(-c3ccccc3)nc2-c2ccccc2)c1 | > 10 µM | pIC50 (PBLUC_HILL_SLOPE 2.80, 14.9, PBLUC_R_SQUARED 0.685, 0.405, read-out: LUCIFERASE INFECTION ASSAY - IC50): 5.12 |
| CC(=O)c1cccc(-c2cnc3cnc(-c4ccccc4)cn23)c1 | > 10.5 µM | pIC50 (PBLUC_HILL_SLOPE 2.79, PBLUC_R_SQUARED 0.249, read-out: LUCIFERASE INFECTION ASSAY - IC50): 5.04 |
| Cn1ccnc1SCC(=O)N1N=C2/C(=C/c3ccccc3)CCCC2C1c1ccccc1 (stereo not given) | > 10 µM | pIC50 (PBLUC_HILL_SLOPE 2.84, PBLUC_R_SQUARED 0.326, read-out: LUCIFERASE INFECTION ASSAY - IC50): 5.08 |
| C#CCSc1nnc(-c2ccc(C(C)(C)C)cc2)n1C | 5.91 µM | pIC50 (PBLUC_HILL_SLOPE 2.86, PBLUC_R_SQUARED 0.337, read-out: LUCIFERASE INFECTION ASSAY - IC50): 5.56 |
| O=C(Oc1ccc(Cl)cc1Cc1ccccc1)c1ccccc1-c1ccc(C(F)(F)F)cc1 | > 10 µM | pIC50 (PBLUC_HILL_SLOPE 2.87, PBLUC_R_SQUARED 0.0345, read-out: LUCIFERASE INFECTION ASSAY - IC50): 5.06 |
| COc1cc(CCC2CCN(c3ccc4nnc(C(F)(F)F)n4n3)CC2)cc(OC)c1 | > 10 µM | pIC50 (PBLUC_HILL_SLOPE 2.86, PBLUC_R_SQUARED 0.563, read-out: LUCIFERASE INFECTION ASSAY - IC50): 5.23 |
| Cc1ccc(S(=O)(=O)Nc2ccc(C(=O)Nc3ccccc3O)cc2)cc1C | 2.52 µM | pIC50 (PBLUC_HILL_SLOPE 2.83, PBLUC_R_SQUARED 0.529, read-out: LUCIFERASE INFECTION ASSAY - IC50): 5.94 |
| FC(F)(F)Oc1cccc(-c2ccc3ncc(-c4cccs4)n3n2)c1 | > 10 µM | pIC50 (PBLUC_HILL_SLOPE 2.85, PBLUC_R_SQUARED 0.222, read-out: LUCIFERASE INFECTION ASSAY - IC50): 5.04 |
| Fc1ccc(-c2nc3ccnc(Nc4ccccc4)c3[nH]2)cc1F | > 10 µM | pIC50 (PBLUC_HILL_SLOPE 2.79, PBLUC_R_SQUARED 0.219, read-out: LUCIFERASE INFECTION ASSAY - IC50): 5.27 |
| N=c1c2ccccc2nnn1-c1ccc(C(F)(F)F)cc1 | 7.24 µM | pIC50 (PBLUC_HILL_SLOPE 2.81, PBLUC_R_SQUARED 0.81, read-out: LUCIFERASE INFECTION ASSAY - IC50): 5.48 |
